Consider 13 compounds from patent US8399520B2, “Selective estrogen receptor modulator” (Eisai R&D Management Co., Ltd., priority 2002, dated 2013).

Series [1] concerns the target T1, estrogen receptor derived from bovine uterus (Bos taurus, UniProt P49884).
T1 construct: estrogen receptor derived from bovine uterus was diluted with the assay buffer solution so that 10 to 20 μg total protein was present; from tissue; host or cells: bovine uterus
T1 sequence (P49884 1-596): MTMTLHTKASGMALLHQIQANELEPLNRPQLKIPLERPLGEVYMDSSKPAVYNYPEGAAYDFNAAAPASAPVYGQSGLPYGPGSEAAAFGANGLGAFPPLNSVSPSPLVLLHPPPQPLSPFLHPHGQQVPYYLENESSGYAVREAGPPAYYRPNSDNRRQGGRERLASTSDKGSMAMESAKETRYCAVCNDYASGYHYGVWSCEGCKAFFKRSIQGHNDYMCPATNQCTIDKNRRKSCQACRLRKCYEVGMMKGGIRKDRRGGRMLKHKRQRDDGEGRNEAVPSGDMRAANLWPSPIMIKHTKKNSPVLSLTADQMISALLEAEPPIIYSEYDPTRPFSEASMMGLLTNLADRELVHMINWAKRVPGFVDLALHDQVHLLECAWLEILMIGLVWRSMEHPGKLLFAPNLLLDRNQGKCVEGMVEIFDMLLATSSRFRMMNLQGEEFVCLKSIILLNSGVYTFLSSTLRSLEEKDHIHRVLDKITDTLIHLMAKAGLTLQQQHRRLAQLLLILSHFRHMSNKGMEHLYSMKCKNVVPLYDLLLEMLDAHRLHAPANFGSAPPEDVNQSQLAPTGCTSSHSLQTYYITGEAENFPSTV
Put plainly: In vitro estrogen receptor binding assay. Conditions: read-out: Estrogen receptor binding affinity: Ki. The method, then:
The binding affinity of the compound according to the present invention to estrogen receptor was measured using an in vitro estrogen receptor binding assay. The binding affinity measures the ability of the compound according to the present invention to remove [^3H]-estradiol from estrogen receptor derived from bovine uterus. The following materials were used in this assay: (1) the assay buffer solution was 20 mM Tris/HCl (pH 7.5) containing 1 mM dithiothreitol (DTT), 1 mM EDTA and 10% glycerol; (2) radioactive ligand was [^3H]-estradiol purchased from Amersham Life Science; (3) the cold ligand was diethylstilbestrol purchased from sigma (Sigma); and (4) the estrogen receptor was derived from bovine uterus. The compound to be tested was prepared as a 10% DMSO solution. [^3H]-estradiol was dissolved in the assay buffer solution so as to obtain a final concentration of 1 nM. […] Each plate contains total binding, non-specific binding and the binding which were not inhibited by various concentrations of the compound. The plate was incubated for 1 hour at room temperature. […] These mixtures were centrifuged, and the supernatant thereof was evaluated for its radioactivity using a liquid scintillation counter. Specific binding was calculated by subtracting non-specific binding dpm (counts remaining in the supernatant obtained by centrifugal separation of a reaction mixture containing estrogen receptor derived from bovine uterus, radioactive ligand and excess cold ligand) from the total binding dpm (counts remaining in the supernatant obtained by centrifugal separation of a reaction mixture containing estrogen receptor derived from bovine uterus and radioactive ligand only). The effectiveness of the compound was evaluated by Ki. […] C is the concentration of [^3H]-estradiol in the reaction mixture, and Kd is the [^3H]-estradiol dissociation constant. The Kd was determined by Scatchard analysis. That is to say, various concentrations of [^3H]-estradiol were used to measure the concentration of specifically bound [^3H]-estradiol, which served as the horizontal axis, the value which was obtained by dividing the concentration of specifically bound [^3H]-estradiol by the concentration [^3H]-estradiol not bound to the receptor served as the vertical axis to produce a plot, and the negative value of the inverse of the slope of the resulting straight line was used as Kd.

Series [2] relates to MCF-7 breast cancer cells. Put plainly: MCF-7 growth analysis (estrogen agonist and antagonist activity, MTT assay). Conditions: Homo sapiens; for activity at 0.1 µM: MCF7, MCF-7, 72 hours, growth rate of diluent control = 100, of 17β-estradiol (1 nM) = 200, read-out: Agonist activity: growth rate (100 nM test compound); for IC50: MCF7, MCF-7 growth with 17β-estradiol (10 pM) present simultaneously, 72 hours. The class given is cell-based. On the procedure:
Test Example 2 determines the estrogen agonist and antagonist activities of the compound according to the present invention in reproduction system cells. […] The present test was carried out according to the following procedures. MCF-7 breast cancer cells were cultured in the preservation medium until the compound evaluation. The preservation medium is the MEM (minimum essential medium, phenol red-free, Gibco, ##51200-038) supplemented with 10% (volume/volume) fetal bovine serum (FBS), 2 mM L-glutamine, 1 mM sodium pyruvate, non-essential amino acids (0.1 mM, Gibco, #15240-062), and antibiotic-antimycotic solution ( 1/50 of culture medium volume, Gibco). Five days prior to analysis, the preservation medium was exchanged with analytical medium to which 10% charcoal-stripped fetal bovine serum (charcoal-FBS) was added instead of 10% FBS, so as to deprive the MCF-7 cells of endogenous steroids. Twenty-four hours after exchange to the analytical medium, the MCF-7 cells were removed from the preservation flask using cell isolation medium (trypsin-EDTA solution, Gibco). The cells were washed with analytical medium once, and cell suspension at 50,000 cell/ml was prepared using the analytical medium. The prepared cell suspension was added to a 96 well flat-bottomed microculture at […] (5,000 cells) per well, the cells were cultured in a 5% CO2 incubator for 24 hours at 37° C., to equilibrate the cells after cell transfer. […] The cells were further cultured in the 5% CO2 incubator for 72 hours at 37° C. After culturing, the cell growth was examined by the MTT assay. MTT assay was carried out as the following protocols. MTT solution at 8 mg/ml (MTT dissolved in phosphate saline water buffer) was added to the microculture at 10 μl/well, and the cells were cultured in the 5% CO2 incubator for 30 minutes at 37° C. Thereafter, resulting from the reduction of MTT by the cells, formazan crystals were dissolved by adding a dissolution buffer (400 g/l of an aqueous solution of SDS (50%) and dimethylformamide (50%)) to the microculture at 100 μl/well, and incubated the microculture for more than 4 hours in the dark. For each well of the microculture, the optical density at 590 nm due to the dissolved formazan crystals was measured.

Series [3] relates to ovariectomized rats. Briefly: Ovariectomized rats: bone density of femur and fifth lumbar vertebrae. Conditions: OVX rats, 0.3 mg/kg orally, 8 weeks. The class given is in vivo, rat. An excerpt: (§1) Ten weeks old Female Fischer rats (F344/N, Japan SLC, Shizuoka, Japan) were used. Rats were grouped to eliminate the effect of body weight between each group and housed with free access to food and water. Animals were anesthetized with Nembutal (Abbott Laboratories, Chicago, Ill.) and the ovaries were removed. In sham-operated group, ovaries were only touched with tweezers. Administration of compounds was started one day after the operation.
(§2) Estradiol (Sigma-Aldrich, St. Louis, Mo.) was dissolved in DMSO to 150 mg/mL then diluted with sesame oil to 0.15 mg/mL. The compounds in Examples 736 and 814, and Raloxifene were suspended in sesame oil to 5, 5 and 1.5 mg/mL, respectively. Samples were divided into aliquots for daily administration and preserved at −18° C. until use.
(§3) The samples were orally administered at 2 mL/kg. Administration was carried out once a day from Monday to Friday for 8 weeks.
After animals were sacrificed by decapitation, left femur and the fifth lumbar vertebrae were removed. The bone density was measured by using QDR-1000/W (Ho logic Inc., Bedford, Mass.).

Series [4] relates to ovariectomized rats. Briefly: Bone resorption in ovariectomized rats: deoxypyridinoline in urine. Conditions: OVX rats, 0.3 mg/kg orally once a day Monday to Friday, urine. The series is classed as in vivo, rat.
Source text: as §1, §2, §3
Urine was gathered overnight (17 hours) using the metabolic cage under fasting. The amount of urinary deoxypyridinoline was measured with ELISA kit, Osteorincs-DPD (Sumitomo Seiyaku Biomedical Co., Ltd., Osaka, Japan) and evaluated as total amount produced in 17 hours or as the amount per 1 mg of creatinine.

For series [5], the system named is ovariectomized rats. Put plainly: Ovariectomized rats: uterus wet weight. The series is classed as in vivo, rat. To be noted: OVX rats, 0.3 mg/kg orally, 8 weeks.
Source text: as §1, §2, §3
After animals were sacrificed by decapitation, uterus was removed and adipose tissue and vagina was separated from uterus prior to uterus weight measurement.

SMILES strings stand for the structures.

As a reminder, the Ki is the equilibrium dissociation constant of an inhibitor or competing ligand from its target. As a reminder, the IC50 is the concentration at which inhibition is half-maximal. Read a low IC50 as greater potency in that assay. With `CCN(Cc1ccc(OCCN2CCCCCC2)cc1)c1cc(O)ccc1[C@@H]1CCc2cc(O)ccc2C1` [190 (R), (R)-6-{2-{[4-(2-azepan-1-ylethoxy)benzyl]ethylamino}-4-hydroxyphenyl}-5,6,7,8-tetrahydronaphthalen-2-ol], the Ki in series [1] worked out at 1 nM. In series [2], the activity at 0.1 µM is 124% and the IC50 came out at 7.95 nM.
Turning to `CC/C(=C(\c1ccccc1)c1ccc(OCCN(C)C)cc1)c1ccccc1` [Comparative Example, Tamoxifen, reference compound], the activity at 0.1 µM in series [2] was determined as 133%.
On to `C[C@]12CC[C@@H]3c4ccc(O)cc4CC[C@H]3[C@@H]1CC[C@@H]2O` [Estradiol, reference compound], for which, in series [3], the “Bone Mineral Density, Distal femur” value is reported as 0.250 ± 0.001 g/cm^2; the “Bone Mineral Density, Lumber 5” value is recorded as 0.150 ± 0.005 g/cm^2; the “Bone Mineral Density, Whole femur” value is 0.237 ± 0.001 g/cm^2. Besides, the “Deoxypyridinoline, 5 weeks” value in series [4] (5 weeks) was 12.06 ± 1.60 nM/mg/dl. Also, the “Deoxypyridinoline, 8 weeks” value in series [4] (8 weeks) came out at 11.61 ± 2.10 nM/mg/dl. Besides, the “Uterus (wet weight)” value in series [5] is on record as 0.213 ± 0.013 g.
`CCN(Cc1ccc(OCCN2CCCCCC2)nc1)c1cc(OC)ccc1[C@@H]1CCc2cc(O)ccc2C1` [Example 228, (R)-6-{2-{[6-(2-Azepan-1-ylethoxy)pyridin-3-ylmethyl]ethylamino}-4-methoxyphenyl}-5,6,7,8-tetrahydronaphthalen-2-ol]: in series [1], the Ki was 2.3 nM. In series [2], the activity at 0.1 µM is 101% and the IC50 was found to be 2.62 nM.
As to `CCN(Cc1ccc(CCN2CCCCCC2)cn1)c1cc(OC)c(OC)cc1C1CCc2cc(O)ccc2C1` (stereo not drawn) [Example 255, 6-{2-{[5-(2-Azepan-1-ylethyl)pyridin-2-ylmethyl]ethylamino}-4,5-dimethoxyphenyl}-5,6,7,8-tetrahydronaphthalen-2-ol], the Ki in series [1] turned out to be 1.4 nM. Besides, in series [2], the activity at 0.1 µM was found to be 106% and the IC50 is 1.4 nM.
Take `CCN(Cc1ccc(CCN2CCCCCC2)s1)c1cc(OC)c(OC)cc1[C@@H]1CCc2cc(O)ccc2C1` [Example 259, (R)-6-{2-{[5-(2-Azepan-1-ylethyl)thiophen-2-ylmethyl]ethylamino}-4,5-dimethoxyphenyl}-5,6,7,8-tetrahydronaphthalen-2-ol]: in series [1], the Ki came to 2.8 nM. For the same compound, in series [2], the activity at 0.1 µM is 103% and the IC50 came to 4.12 nM.
With `CCN(Cc1ccc(OC2CC3CCC(C2)N3C)c(F)c1)c1cc(O)ccc1C1CCc2cc(O)ccc2C1` (stereo not drawn) [Example 367, 6-{2-{Ethyl[3-fluoro-4-(8-methyl-8-azabicyclo[3.2.1]oct-3-yloxy)benzyl]amino}-4-hydroxyphenyl}-5,6,7,8-tetrahydronaphthalen-2-ol], the Ki in series [1] was found to be 1.8 nM.
Still for that read-out and setting: with `CCN1CCN(CCOc2ccc(CN(CC)c3cc(O)ccc3C3CCc4cc(O)ccc4C3)cc2)CC1` (stereo not drawn) [Example 373, 6-{2-{Ethyl{4-[2-(4-ethylpiperazin-1-yl)ethoxy]benzyl}amino}-4-hydroxyphenyl}-5,6,7,8-tetrahydronaphthalen-2-ol] the figure was 5 nM.
As to `CCNCCOc1ccc(CN(CC)c2cc(O)ccc2C2CCc3cc(O)ccc3C2)cc1` (stereo not drawn) [Example 379, 6-{2-{Ethyl[4-(2-ethylaminoethoxy)benzyl]amino}-4-hydroxyphenyl}-5,6,7,8-tetrahydronaphthalen-2-ol], the Ki in series [1] is 1.1 nM.
For `CCOCCN(C)CCOc1ccc(CN(CC)c2cc(OC)ccc2[C@@H]2CCc3cc(O)ccc3C2)cc1` [Example 618, (R)-6-{2-{{4-{2-[(2-Ethoxyethyl)methylamino]ethoxy}benzyl}ethylamino}-4-methoxyphenyl}-5,6,7,8-tetrahydronaphthalen-2-ol], the Ki in series [1] turned out to be 2.9 nM. For the same compound, in series [2], the activity at 0.1 µM worked out at 96% and the IC50 was 2.9 nM.
Consider `CCN(Cc1ccc(CCN(C)C)cc1)c1cc(OC)c(OC)cc1[C@@H]1CCc2cc(O)ccc2C1` [Example 741, (R)-6-{2-{[4-(2-Dimethylaminoethyl)benzyl]ethylamino}-4,5-dimethoxyphenyl}-5,6,7,8-tetrahydronaphthalen-2-ol], for which the Ki in series [1] is 0.2 nM. Also, in series [2], the activity at 0.1 µM worked out at 98% and the IC50 turned out to be 2.06 nM.
As for `CC(C)(Cc1ccc(O)cc1Oc1ccc(OCCN2CCCCC2)cc1)c1ccc(O)cc1` [Example 776, 4-[2-(4-Hydroxyphenyl)-2-methylpropyl]-3-[4-(2-piperidin-1-ylethoxy)phenoxy]phenol], the Ki in series [1] was 6.3 nM.
Still for that read-out and setting: the figure for `CCN(Cc1ccc(OCCN2CCCCC2)cc1)c1cc(O)ccc1CC1CCc2cc(O)ccc2C1` (stereo not drawn) [Example 791, 6-{2-{Ethyl[4-(2-piperidin-1-ylethoxy)benzyl]amino}-4-hydroxybenzyl}-5,6,7,8-tetrahydronaphthalen-2-ol] is 9.8 nM.
